In ChEMBL document CHEMBL1201862, “PubChem BioAssay data set” (2004):
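Dose response: 5 concentrations. Exposure: 48 h. Format: 96-well plates. Endpoint: linear interpolation; highest concentration if not reached. Here, GI50 denotes the concentration required for 50% inhibition of growth.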 Calls of active or inactive are those of the source. No stated cut-off is given here; in the data, active = GI50 up to about 1.1 µM and inactive = higher.

What was measured:
Test in all cases: DTP human tumour cell line panel, 48 h
[1] = system: 786-0
[2] = system: A498
[3] = system: A549
[4] = system: ACHN
[5] = system: CAKI-1
[6] = system: CCRF-CEM
[7] = system: COLO 205
[8] = system: DLD-1
[9] = system: DMS-114
[10] = system: DMS-273
[11] = system: EKVX
[12] = system: HCC 2998
[13] = system: HCT-15
[14] = system: HL-60
[15] = system: HOP-18
[16] = system: HOP-62
[17] = system: HOP-92
[18] = system: IGROV-1
[19] = system: K562
[20] = system: KM-20L2
[21] = system: KM12
[22] = system: LOX IMVI
[23] = system: LXFL 529
[24] = system: M14
[25] = system: M19-MEL
[26] = system: MOLT-4
[27] = system: Malme-3M
[28] = system: NCI-H226
[29] = system: NCI-H23
[30] = system: OVCAR-3
[31] = system: OVCAR-4
[32] = system: OVCAR-5
[33] = system: OVCAR-8
[34] = system: RPMI-8226
[35] = system: RXF 393
[36] = system: SF-268
[37] = system: SF-295
[38] = system: SF-539
[39] = system: SK-MEL-28
[40] = system: SK-MEL-2
[41] = system: SK-MEL-5
[42] = system: SK-OV-3
[43] = system: SN12C
[44] = system: SNB-19
[45] = system: SNB-75
[46] = system: SNB-78
[47] = system: SW-620
[48] = system: TK-10
[49] = system: U-251
[50] = system: UACC-257
[51] = system: UACC-62
[52] = system: UO-31
[53] = system: XF498
[54] = system: HCT-116
[55] = system: HT-29
[56] = system: NCI-H460
[57] = system: NCI-H522
[58] = system: SR

CCCC1(CC(=O)O)OCCc2c1[nH]c1ccccc21 (stereo not drawn) [PRODOLIC ACID]
GI50 [1]: > 100 µM (inactive)
GI50 [2]: > 100 µM (inactive)
GI50 [3]: > 100 µM (inactive)
GI50 [4]: > 100 µM (inactive)
GI50 [5]: > 100 µM (inactive)
GI50 [6]: > 100 µM (inactive)
GI50 [7]: > 100 µM (inactive)
GI50 [8]: > 100 µM (inactive)
GI50 [9]: > 100 µM (inactive)
GI50 [10]: > 100 µM (inactive)
GI50 [11]: > 100 µM (inactive)
GI50 [12]: > 100 µM (inactive)
GI50 [13]: > 100 µM
GI50 [14]: > 100 µM (inactive)
GI50 [15]: > 100 µM (inactive)
GI50 [16]: > 100 µM (inactive)
GI50 [17]: > 100 µM (inactive)
GI50 [18]: > 100 µM (inactive)
GI50 [19]: > 100 µM (inactive)
GI50 [20]: > 100 µM (inactive)
GI50 [21]: > 100 µM (inactive)
GI50 [22]: > 100 µM (inactive)
GI50 [23]: > 100 µM (inactive)
GI50 [24]: > 100 µM (inactive)
GI50 [25]: > 100 µM (inactive)
GI50 [26]: > 100 µM (inactive)
GI50 [27]: > 100 µM (inactive)
GI50 [28]: > 100 µM (inactive)
GI50 [29]: > 100 µM (inactive)
GI50 [30]: > 100 µM (inactive)
GI50 [31]: > 100 µM (inactive)
GI50 [32]: > 100 µM (inactive)
GI50 [33]: > 100 µM (inactive)
GI50 [34]: > 100 µM (inactive)
GI50 [35]: > 100 µM (inactive)
GI50 [36]: > 100 µM (inactive)
GI50 [37]: > 100 µM (inactive)
GI50 [38]: > 100 µM (inactive)
GI50 [39]: > 100 µM (inactive)
GI50 [40]: > 100 µM (inactive)
GI50 [41]: > 100 µM (inactive)
GI50 [42]: > 100 µM (inactive)
GI50 [43]: > 100 µM (inactive)
GI50 [44]: > 100 µM (inactive)
GI50 [45]: 69.3 µM (inactive)
GI50 [46]: > 100 µM (inactive)
GI50 [47]: > 100 µM (inactive)
GI50 [48]: > 100 µM (inactive)
GI50 [49]: > 100 µM (inactive)
GI50 [50]: > 100 µM (inactive)
GI50 [51]: > 100 µM (inactive)
GI50 [52]: > 100 µM (inactive)
GI50 [53]: > 100 µM (inactive)

CC(C)/C=C1\CCC(CN2CCOCC2)C1=O (stereo not drawn)
GI50 [1]: 3.66 µM (inactive)
GI50 [2]: > 35.9 µM (inactive)
GI50 [3]: 26.3 µM (inactive)
GI50 [4]: 18 µM (inactive)
GI50 [5]: 4.24 µM (inactive)
GI50 [6]: 2.65 µM (inactive)
GI50 [7]: 6.85 µM (inactive)
GI50 [8]: 2.69 µM (inactive)
GI50 [11]: 19.1 µM (inactive)
GI50 [12]: 20.2 µM (inactive)
GI50 [54]: 5.35 µM (inactive)
GI50 [13]: 5.85 µM
GI50 [14]: 2.13 µM (inactive)
GI50 [15]: 17.7 µM (inactive)
GI50 [16]: > 100 µM (inactive)
GI50 [17]: 18.4 µM (inactive)
GI50 [55]: 6.7 µM (inactive)
GI50 [18]: 14.4 µM (inactive)
GI50 [19]: 2.56 µM (inactive)
GI50 [20]: 20.1 µM (inactive)
GI50 [21]: 10.5 µM (inactive)
GI50 [22]: 24.4 µM (inactive)
GI50 [23]: 2.74 µM (inactive)
GI50 [24]: 11.9 µM (inactive)
GI50 [25]: 23.4 µM (inactive)
GI50 [26]: 2.99 µM (inactive)
GI50 [27]: 15.7 µM (inactive)
GI50 [28]: 30.5 µM (inactive)
GI50 [29]: 17.4 µM (inactive)
GI50 [56]: 28.1 µM (inactive)
GI50 [57]: 2.01 µM (inactive)
GI50 [30]: 18.2 µM (inactive)
GI50 [31]: 20.8 µM (inactive)
GI50 [32]: 22.5 µM (inactive)
GI50 [33]: 11.1 µM (inactive)
GI50 [34]: 0.964 µM (active)
GI50 [35]: 4.94 µM (inactive)
GI50 [36]: 22.9 µM (inactive)
GI50 [37]: 45 µM (inactive)
GI50 [38]: 15.5 µM (inactive)
GI50 [39]: 17.7 µM (inactive)
GI50 [40]: 17.7 µM (inactive)
GI50 [41]: 18.6 µM (inactive)
GI50 [42]: > 100 µM (inactive)
GI50 [43]: 19.3 µM (inactive)
GI50 [44]: > 100 µM (inactive)
GI50 [46]: 12.5 µM (inactive)
GI50 [58]: 3.75 µM (inactive)
GI50 [47]: 2.7 µM (inactive)
GI50 [48]: 12.9 µM (inactive)
GI50 [49]: > 42.4 µM (inactive)
GI50 [50]: 7.78 µM (inactive)
GI50 [51]: 18 µM (inactive)
GI50 [52]: 20.7 µM (inactive)
GI50 [53]: 18.3 µM (inactive)
